Reference: publication PMC10879502, “Linking ATP and allosteric sites to achieve superadditive binding with bivalent EGFR kinase inhibitors” (Communications Chemistry, 2024)

What was measured:
Assay in all cases: KINOMEscan
Type in all cases: binding
Settings in all cases: 1 μM
YANK2 = YANK2 (Homo sapiens, UniProt Q9NY57)
WNK4 = WNK4 (Homo sapiens, UniProt Q96J92)
STK36 = STK36 (Homo sapiens, UniProt Q9NRP7)
WEE1 = WEE1 (Homo sapiens, UniProt P30291)
BMPR1B = target: T1, BMPR1B (Homo sapiens, UniProt O00238)
T1 construct: purchased Eurofins DiscoverX Corporation (KINOMEscan)

[1] = target: RSK1(Kin.Dom.1-N-terminal) (Homo sapiens, UniProt Q15418)
p38-gamma = p38-gamma (Homo sapiens, UniProt P53778)
SGK2 = SGK2 (Homo sapiens, UniProt Q9HBY8)
AKT2 = AKT2 (Homo sapiens, UniProt P31751)
DMPK2 = target: T2, DMPK2 (Homo sapiens, UniProt Q6DT37)
T2 construct: purchased Eurofins DiscoverX Corporation

WEE2 = WEE2 (Homo sapiens, UniProt P0C1S8)
PKAC-alpha = PKAC-alpha (Homo sapiens, UniProt P17612)
TNK1 = target: T3, TNK1 (Homo sapiens, UniProt Q13470)
T3 construct: purchased Eurofins DiscoverX Corporation

CDK7 = CDK7 (Homo sapiens, UniProt P50613)
HIPK3 = target: T4, HIPK3 (Homo sapiens, UniProt Q9H422)
T4 construct: purchased Eurofins DiscoverX Corporation

CAMK1 = target: T5, CAMK1 (Homo sapiens, UniProt Q14012)
T5 construct: purchased Eurofins DiscoverX Corporation (KINOMEscan)

PIP5K1C = PIP5K1C (Homo sapiens, UniProt O60331)
CAMKK1 = target: T6, CAMKK1 (Homo sapiens, UniProt Q8N5S9)
T6 construct: purchased Eurofins DiscoverX Corporation (KINOMEscan)

[2] = target: RSK3(Kin.Dom.1-N-terminal) (Homo sapiens, UniProt Q15349)
RIOK2 = RIOK2 (Homo sapiens, UniProt Q9BVS4)
FLT3(D835Y) = FLT3(D835Y) (Homo sapiens, UniProt P36888, D835Y)
ALK(C1156Y) = ALK(C1156Y) (Homo sapiens, UniProt Q9UM73, C1156Y)
PKN1 = PKN1 (Homo sapiens, UniProt Q16512)
MRCKA = target: T7, MRCKA (Homo sapiens, UniProt Q5VT25)
T7 construct: purchased Eurofins DiscoverX Corporation

SGK3 = SGK3 (Homo sapiens, UniProt Q96BR1)
JNK2 = target: T8, JNK2 (Homo sapiens, UniProt P45984)
T8 construct: purchased Eurofins DiscoverX (KINOMEscan)

ALK = ALK (Homo sapiens, UniProt Q9UM73)
HPK1 = target: T9, HPK1 (Homo sapiens, UniProt Q92918)
T9 construct: purchased Eurofins DiscoverX (KINOMEscan)

PRKG1 = PRKG1 (Homo sapiens, UniProt Q13976)
PAK4 = PAK4 (Homo sapiens, UniProt O96013)
TIE1 = target: T10, TIE1 (Homo sapiens, UniProt P35590)
T10 construct: purchased Eurofins DiscoverX Corporation

EPHA6 = EPHA6 (Homo sapiens, UniProt Q9UF33)
BRAF(V600E) = target: T11, BRAF(V600E) (Homo sapiens, UniProt P15056, V600E)
T11 construct: purchased Eurofins DiscoverX Corporation (KINOMEscan)

ACVR1B = ACVR1B (Homo sapiens, UniProt P36896)
DAPK2 = target: T12, DAPK2 (Homo sapiens, UniProt Q9UIK4)
T12 construct: purchased Eurofins DiscoverX Corporation

NEK7 = NEK7 (Homo sapiens, UniProt Q8TDX7)
p38-delta = p38-delta (Homo sapiens, UniProt O15264)
SGK = SGK (Homo sapiens, UniProt O00141)
ACVR1 = target: T13, ACVR1 (Homo sapiens, UniProt Q04771)
T13 construct: purchased Eurofins DiscoverX Corporation

T9 sequence (Q92918 whole entry): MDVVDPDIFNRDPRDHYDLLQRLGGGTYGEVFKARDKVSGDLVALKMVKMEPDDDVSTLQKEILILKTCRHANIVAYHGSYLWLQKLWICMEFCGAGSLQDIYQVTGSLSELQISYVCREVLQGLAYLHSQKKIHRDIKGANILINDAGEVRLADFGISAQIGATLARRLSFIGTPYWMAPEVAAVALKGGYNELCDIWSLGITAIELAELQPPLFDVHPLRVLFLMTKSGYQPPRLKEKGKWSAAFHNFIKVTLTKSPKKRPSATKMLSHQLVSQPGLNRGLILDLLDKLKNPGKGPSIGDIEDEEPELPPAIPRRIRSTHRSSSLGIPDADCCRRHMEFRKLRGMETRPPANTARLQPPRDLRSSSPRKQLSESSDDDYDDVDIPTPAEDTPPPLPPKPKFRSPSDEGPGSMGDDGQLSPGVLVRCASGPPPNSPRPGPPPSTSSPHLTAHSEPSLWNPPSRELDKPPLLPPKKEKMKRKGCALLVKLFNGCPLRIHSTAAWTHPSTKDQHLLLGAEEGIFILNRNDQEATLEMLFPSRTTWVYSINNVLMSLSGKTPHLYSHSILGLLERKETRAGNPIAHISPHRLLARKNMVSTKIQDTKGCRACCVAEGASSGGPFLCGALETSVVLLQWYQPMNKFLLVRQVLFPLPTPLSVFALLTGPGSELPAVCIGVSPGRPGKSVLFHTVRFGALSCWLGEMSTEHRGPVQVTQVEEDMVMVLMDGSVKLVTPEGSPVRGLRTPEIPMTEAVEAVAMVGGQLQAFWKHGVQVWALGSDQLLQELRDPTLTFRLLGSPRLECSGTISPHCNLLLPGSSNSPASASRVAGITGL
Sequence of RIOK2 (Q9BVS4 whole entry): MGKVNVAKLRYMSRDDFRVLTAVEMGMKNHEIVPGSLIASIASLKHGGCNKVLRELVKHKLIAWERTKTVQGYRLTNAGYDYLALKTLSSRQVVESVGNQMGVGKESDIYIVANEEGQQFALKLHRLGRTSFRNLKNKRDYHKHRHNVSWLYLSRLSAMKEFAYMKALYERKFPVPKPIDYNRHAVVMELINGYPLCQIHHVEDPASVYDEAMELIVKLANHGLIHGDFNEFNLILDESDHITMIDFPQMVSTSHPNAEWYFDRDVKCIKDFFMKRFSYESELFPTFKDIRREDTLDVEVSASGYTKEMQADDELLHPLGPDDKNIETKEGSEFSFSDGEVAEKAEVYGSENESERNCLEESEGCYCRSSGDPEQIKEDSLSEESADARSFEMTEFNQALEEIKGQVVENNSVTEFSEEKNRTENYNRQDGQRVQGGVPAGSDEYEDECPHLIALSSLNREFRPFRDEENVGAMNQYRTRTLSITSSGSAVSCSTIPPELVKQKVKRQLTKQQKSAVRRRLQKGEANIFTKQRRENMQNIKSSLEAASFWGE
Sequence of STK36 (Q9NRP7 whole entry): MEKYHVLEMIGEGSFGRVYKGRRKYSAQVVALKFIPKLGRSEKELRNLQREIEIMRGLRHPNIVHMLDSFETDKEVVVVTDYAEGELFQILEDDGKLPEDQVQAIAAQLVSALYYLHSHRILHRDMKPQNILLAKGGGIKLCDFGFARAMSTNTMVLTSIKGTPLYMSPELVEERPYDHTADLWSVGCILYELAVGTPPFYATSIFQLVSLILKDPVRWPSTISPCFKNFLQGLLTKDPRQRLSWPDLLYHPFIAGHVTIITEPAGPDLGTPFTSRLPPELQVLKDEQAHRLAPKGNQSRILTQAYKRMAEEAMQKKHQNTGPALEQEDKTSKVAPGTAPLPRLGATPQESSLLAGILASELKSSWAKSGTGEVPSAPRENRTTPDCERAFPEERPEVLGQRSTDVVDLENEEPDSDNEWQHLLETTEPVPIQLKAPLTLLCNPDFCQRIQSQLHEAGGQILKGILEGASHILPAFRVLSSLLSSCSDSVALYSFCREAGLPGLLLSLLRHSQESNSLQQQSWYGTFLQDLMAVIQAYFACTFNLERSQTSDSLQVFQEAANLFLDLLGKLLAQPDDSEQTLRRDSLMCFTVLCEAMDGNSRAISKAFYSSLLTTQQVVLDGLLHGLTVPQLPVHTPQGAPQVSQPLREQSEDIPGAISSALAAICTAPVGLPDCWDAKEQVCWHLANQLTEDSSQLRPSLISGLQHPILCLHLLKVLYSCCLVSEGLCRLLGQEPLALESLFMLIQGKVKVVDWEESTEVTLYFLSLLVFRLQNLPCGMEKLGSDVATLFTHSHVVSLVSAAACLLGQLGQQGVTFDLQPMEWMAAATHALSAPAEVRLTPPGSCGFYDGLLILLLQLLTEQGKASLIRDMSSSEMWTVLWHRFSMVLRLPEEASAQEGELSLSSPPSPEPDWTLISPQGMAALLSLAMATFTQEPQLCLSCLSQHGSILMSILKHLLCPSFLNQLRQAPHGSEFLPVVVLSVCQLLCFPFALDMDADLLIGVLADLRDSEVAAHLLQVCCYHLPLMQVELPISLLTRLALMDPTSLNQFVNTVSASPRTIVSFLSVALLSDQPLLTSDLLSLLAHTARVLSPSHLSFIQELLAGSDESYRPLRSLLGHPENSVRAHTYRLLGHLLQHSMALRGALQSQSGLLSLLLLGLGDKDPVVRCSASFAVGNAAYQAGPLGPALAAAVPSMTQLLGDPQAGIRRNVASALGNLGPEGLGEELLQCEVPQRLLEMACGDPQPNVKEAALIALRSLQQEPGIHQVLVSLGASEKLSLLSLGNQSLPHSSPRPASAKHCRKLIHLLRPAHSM
Sequence of PIP5K1C (O60331 whole entry): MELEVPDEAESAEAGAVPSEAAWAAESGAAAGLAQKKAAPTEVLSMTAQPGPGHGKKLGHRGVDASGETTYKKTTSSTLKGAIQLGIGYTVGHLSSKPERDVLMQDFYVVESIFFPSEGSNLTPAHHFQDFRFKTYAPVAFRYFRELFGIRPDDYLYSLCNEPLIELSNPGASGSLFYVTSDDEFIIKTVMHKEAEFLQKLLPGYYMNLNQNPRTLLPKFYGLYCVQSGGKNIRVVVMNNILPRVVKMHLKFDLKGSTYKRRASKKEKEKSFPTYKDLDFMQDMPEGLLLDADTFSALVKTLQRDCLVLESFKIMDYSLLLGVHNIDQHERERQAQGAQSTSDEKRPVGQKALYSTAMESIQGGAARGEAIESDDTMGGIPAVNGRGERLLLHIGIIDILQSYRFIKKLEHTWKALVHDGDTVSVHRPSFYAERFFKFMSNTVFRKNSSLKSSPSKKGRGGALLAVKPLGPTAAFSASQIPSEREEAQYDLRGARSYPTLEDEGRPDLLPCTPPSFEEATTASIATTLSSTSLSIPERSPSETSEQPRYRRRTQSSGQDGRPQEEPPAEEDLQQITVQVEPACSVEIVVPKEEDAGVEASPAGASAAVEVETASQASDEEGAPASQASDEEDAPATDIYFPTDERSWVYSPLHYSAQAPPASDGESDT
Sequence of EPHA6 (Q9UF33 23-1036): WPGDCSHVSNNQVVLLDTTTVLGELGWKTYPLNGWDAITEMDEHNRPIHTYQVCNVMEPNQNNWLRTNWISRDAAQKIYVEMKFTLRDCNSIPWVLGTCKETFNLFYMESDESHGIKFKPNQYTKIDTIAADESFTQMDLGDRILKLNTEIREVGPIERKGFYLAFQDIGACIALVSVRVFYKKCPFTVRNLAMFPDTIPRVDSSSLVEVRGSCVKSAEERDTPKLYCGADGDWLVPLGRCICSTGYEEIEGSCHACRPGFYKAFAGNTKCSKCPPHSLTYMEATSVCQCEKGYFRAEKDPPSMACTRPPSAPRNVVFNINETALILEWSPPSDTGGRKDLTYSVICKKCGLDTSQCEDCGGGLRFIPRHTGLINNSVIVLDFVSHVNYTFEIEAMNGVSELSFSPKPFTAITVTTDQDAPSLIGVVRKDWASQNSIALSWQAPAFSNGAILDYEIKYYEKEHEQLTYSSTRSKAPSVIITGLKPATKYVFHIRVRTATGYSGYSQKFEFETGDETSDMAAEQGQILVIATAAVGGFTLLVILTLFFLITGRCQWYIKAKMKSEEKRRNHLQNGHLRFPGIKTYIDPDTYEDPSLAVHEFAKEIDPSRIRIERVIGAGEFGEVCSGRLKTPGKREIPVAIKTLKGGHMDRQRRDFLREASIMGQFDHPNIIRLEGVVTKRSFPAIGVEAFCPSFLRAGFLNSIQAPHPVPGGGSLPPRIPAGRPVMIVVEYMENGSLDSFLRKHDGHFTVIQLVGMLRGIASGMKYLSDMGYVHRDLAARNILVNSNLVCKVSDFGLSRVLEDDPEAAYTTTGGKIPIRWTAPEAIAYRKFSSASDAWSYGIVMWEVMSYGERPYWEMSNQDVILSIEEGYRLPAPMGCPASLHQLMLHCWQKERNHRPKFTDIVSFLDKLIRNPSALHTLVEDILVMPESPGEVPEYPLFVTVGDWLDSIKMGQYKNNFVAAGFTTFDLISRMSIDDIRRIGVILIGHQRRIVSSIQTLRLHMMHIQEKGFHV
T5 sequence (Q14012 whole entry): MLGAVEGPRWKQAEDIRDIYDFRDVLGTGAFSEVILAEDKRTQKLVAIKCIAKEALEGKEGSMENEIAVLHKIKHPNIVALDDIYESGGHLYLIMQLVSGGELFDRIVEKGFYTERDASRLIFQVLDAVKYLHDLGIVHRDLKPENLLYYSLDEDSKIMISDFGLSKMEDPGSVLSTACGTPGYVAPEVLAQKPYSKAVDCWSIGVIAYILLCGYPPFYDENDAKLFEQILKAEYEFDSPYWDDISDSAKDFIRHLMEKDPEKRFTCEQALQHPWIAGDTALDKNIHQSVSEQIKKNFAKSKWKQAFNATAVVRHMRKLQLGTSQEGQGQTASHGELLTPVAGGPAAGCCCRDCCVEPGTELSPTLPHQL
Sequence of RSK1(Kin.Dom.1-N-terminal) (Q15418 62-321 limits assumed): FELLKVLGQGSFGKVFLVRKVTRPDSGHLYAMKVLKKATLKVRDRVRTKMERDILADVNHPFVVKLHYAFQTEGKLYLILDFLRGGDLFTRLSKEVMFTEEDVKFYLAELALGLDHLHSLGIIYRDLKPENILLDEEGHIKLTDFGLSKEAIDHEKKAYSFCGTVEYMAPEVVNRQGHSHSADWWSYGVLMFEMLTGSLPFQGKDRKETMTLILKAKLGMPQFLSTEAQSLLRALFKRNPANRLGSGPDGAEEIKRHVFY

## C=CC(=O)Nc1ccc(OC)c(Nc2cc(-c3[nH]c(CC)nc3-c3cccc(NC(=O)c4cccc5c4NC(=O)c4ccccc4N5)c3)ccn2)c1 [Compound 4]
YANK2
  POC: 63% of control
WNK4
  POC: 85% of control
STK36
  POC: 30% of control
WEE1
  POC: 85% of control
BMPR1B
  POC: 100% of control
[1]
  POC: 4.7% of control
p38-gamma
  POC: 100% of control
SGK2
  POC: 83% of control
AKT2
  POC: 91% of control
DMPK2
  POC: 0% of control
WEE2
  POC: 98% of control
PKAC-alpha
  POC: 100% of control
TNK1
  POC: 22% of control
CDK7
  POC: 49% of control
HIPK3
  POC: 100% of control
CAMK1
  POC: 81% of control
PIP5K1C
  POC: 78% of control
CAMKK1
  POC: 85% of control
[2]
  POC: 97% of control
RIOK2
  POC: 83% of control
FLT3(D835Y)
  POC: 96% of control
ALK(C1156Y)
  POC: 87% of control
PKN1
  POC: 88% of control
MRCKA
  POC: 0% of control
SGK3
  POC: 90% of control
JNK2
  POC: 78% of control
ALK
  POC: 100% of control
HPK1
  POC: 45% of control
PRKG1
  POC: 100% of control
PAK4
  POC: 89% of control
TIE1
  POC: 100% of control
EPHA6
  POC: 90% of control
BRAF(V600E)
  POC: 100% of control
ACVR1B
  POC: 85% of control
DAPK2
  POC: 100% of control
NEK7
  POC: 86% of control
p38-delta
  POC: 100% of control
SGK
  POC: 86% of control
ACVR1
  POC: 96% of control
